# Patent US20250171437A1 (Agios Pharmaceuticals,Inc., priority 2022, published 2025)
# Molecular target: T1, human PAH with the R408W mutation (A375 R408W cells) (Homo sapiens, UniProt P00439, R408W)
# T1 construct: expressed in transfected cells
# T1 sequence (P00439 1-452 R408W): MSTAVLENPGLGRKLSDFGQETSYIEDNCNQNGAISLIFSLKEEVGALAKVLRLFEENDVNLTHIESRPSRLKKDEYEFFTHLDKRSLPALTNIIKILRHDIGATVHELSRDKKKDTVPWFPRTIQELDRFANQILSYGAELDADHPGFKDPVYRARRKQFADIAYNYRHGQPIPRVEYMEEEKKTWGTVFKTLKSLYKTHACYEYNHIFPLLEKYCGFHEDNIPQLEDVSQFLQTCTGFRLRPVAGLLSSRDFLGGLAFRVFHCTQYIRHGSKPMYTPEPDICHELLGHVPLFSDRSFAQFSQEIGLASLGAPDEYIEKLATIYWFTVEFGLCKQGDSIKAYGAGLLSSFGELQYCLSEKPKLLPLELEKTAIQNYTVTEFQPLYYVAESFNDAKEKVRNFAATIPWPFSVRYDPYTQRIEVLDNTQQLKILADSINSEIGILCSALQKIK
# Assay: Cell Based Phenylalanine Flux Assay
# Details: A375 R408W cells; 24 hrs with compound, then 20 μM sepiapterin and 800 μM 13C9,15N-Phenylalanine for 4 hours; 13C-Tyrosine by LC-MS; average where tested multiple times
# Procedure, shortened: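 Phenylalanine-to-tyrosine flux is measured in A375 cells carrying stable human R408W PAH. After 24 h compound exposure, 13C9,15N-Phe (800 μM) with sepiapterin (20 μM) is supplied for 4 h and media 13C-Tyr is read by LC-MS; AC50s are binned.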
row,AC50 [nM],Structure (SMILES)
1,≤ 500,"O=C(c1ocnc1C(F)F)N1CCc2[nH]cnc2[C@@H]1c1nc2c(Br)cccc2o1 [Example 434, (R)-(4-(4-bromobenzo[d]oxazol-2-yl)-6,7-dihydro-1H-imidazo[4,5-c]pyridin-5(4H)-yl)(4-(difluoromethyl)oxazol-5-yl)methanone]"
2,≤ 500,"O=C(c1ccnn1C(F)(F)F)N1CCc2[nH]cnc2[C@H]1c1nc2c(F)cccc2o1 [Example 293, (S)-(4-(4-fluorobenzo[d]oxazol-2-yl)-6,7-dihydro-1H-imidazo[4,5-c]pyridin-5(4H)-yl)(1-(trifluoromethyl)-1H-pyrazol-5-yl)methanone]"
3,≤ 500,"O=C(c1ocnc1C(F)(F)F)N1CCc2[nH]cnc2[C@H]1c1nc2ccccc2o1 [Example 797, (S)-(4-(benzo[d]oxazol-2-yl)-6,7-dihydro-1H-imidazo[4,5-c]pyridin-5(4H)-yl)(4-(trifluoromethyl)oxazol-5-yl)methanone]"
4,500 to 1000,"O=C(c1nnc(-c2ncccc2F)o1)N1CCc2[nH]cnc2[C@@H]1c1nc2cccc(F)c2o1 [Example 867, (R)-(4-(7-fluorobenzo[d]oxazol-2-yl)-6,7-dihydro-1H-imidazo[4,5-c]pyridin-5(4H)-yl)(5-(3-fluoropyridin-2-yl)-1,3,4-oxadiazol-2-yl)methanone]"
5,1000 to 5000,"COCc1ccc2c(C(=O)N3CCc4[nH]cnc4[C@H]3c3nc4cc(F)ccc4o3)cnn2c1 [Example 29, (S)-(4-(5-fluorobenzo[d]oxazol-2-yl)-6,7-dihydro-1H-imidazo[4,5-c]pyridin-5(4H)-yl)(6-(methoxymethyl)pyrazolo[1,5-a]pyridin-3-yl)methanone]"

# Same assay, conditions: A375 cells expressing R408W PAH; 24 hrs with compound, then 20 μM sepiapterin and 800 μM 13C9,15N-Phenylalanine for 4 hours; 13C-Tyrosine by LC-MS; average where tested multiple times
row,AC50 [nM],Structure (SMILES)
1,≥ 5000,N#Cc1ncoc1C(=O)N1CCc2[nH]cnc2C1c1nc2cc(F)ccc2o1 (stereo not drawn)
